One experiment concerns the target T1, GPR3 (Homo sapiens, UniProt P46089).
T1 construct: expressed in transfected cells; host or cells: CHO cells
Put plainly: GPR3 antagonist functional cAMP assay (LANCE Ultra cAMP TR-FRET, CHO cells stably expressing GPR3). The experiment is classed as cell-based. The following applies: procedure of Example 24. The method in brief:
(§1)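 10,000 cells/well; KRB buffer + 0.1% BSA + 150 μM Ro 20-1724; cpd 45 min, 37 °C, 0.1% DMSO; TR-FRET cAMP, 665 nm; 4-PL fit, normalized to DMSO (0.1%) and reference (100%) → IC50.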
In general terms: Changes in cAMP serve as a functional read-out for many G protein-coupled receptors.

A further experiment concerns the target T2, GPR6 (Homo sapiens, UniProt P46095).
T2 construct: expressed in transfected cells; host or cells: CHO cells
Nature of the experiment: GPR6 antagonist functional cAMP assay (LANCE Ultra cAMP TR-FRET, CHO cells stably expressing GPR6). The following applies: procedure of Example 24. The experiment is classed as cell-based. In short, it runs like this: as §1

In general, IC50 refers to the concentration that gives 50% inhibition. Lower therefore signals higher potency.

T1 sequence (P46089 whole entry, species assumed): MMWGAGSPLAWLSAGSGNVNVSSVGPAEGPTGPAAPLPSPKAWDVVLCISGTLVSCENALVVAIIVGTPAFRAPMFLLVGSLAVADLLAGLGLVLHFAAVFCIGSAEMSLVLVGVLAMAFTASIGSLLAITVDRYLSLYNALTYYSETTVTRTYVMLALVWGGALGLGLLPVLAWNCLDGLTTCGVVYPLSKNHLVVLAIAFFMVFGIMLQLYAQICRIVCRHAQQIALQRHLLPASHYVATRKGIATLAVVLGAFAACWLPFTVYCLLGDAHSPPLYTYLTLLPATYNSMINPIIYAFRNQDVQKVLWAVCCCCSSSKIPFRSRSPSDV
T2 sequence (P46095 whole entry): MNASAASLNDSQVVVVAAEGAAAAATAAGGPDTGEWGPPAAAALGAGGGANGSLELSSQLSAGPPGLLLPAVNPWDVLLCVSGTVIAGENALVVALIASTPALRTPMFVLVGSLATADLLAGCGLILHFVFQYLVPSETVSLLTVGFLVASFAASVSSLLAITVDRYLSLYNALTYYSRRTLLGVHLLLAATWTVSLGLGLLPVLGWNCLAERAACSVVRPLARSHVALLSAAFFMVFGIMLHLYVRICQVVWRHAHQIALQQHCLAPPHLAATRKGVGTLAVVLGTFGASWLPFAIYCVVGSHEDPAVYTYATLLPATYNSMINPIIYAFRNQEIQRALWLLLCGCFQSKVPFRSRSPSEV

For the molecule `CC(C)(O)[C@H](O)c1cc2nc(-c3cnn(C(F)F)c3)c(N3CCN(Cc4ccccc4F)CC3)nc2cn1` (single isomer, unassigned) [Compound 685], the half-maximal inhibitory concentration (IC50) was in the range of 1000 to 30000 nM against GPR3 and 100 to 1000 nM on GPR6.
Regarding `CC(C)(O)[C@@H](O)c1cc2nc(-c3cnn(C(F)F)c3)c(N3CCN(Cc4ccccc4F)CC3)nc2cn1` (single isomer, unassigned) [Compound 686], the IC50 against GPR3 is 100 to 1000 nM; against GPR6, below 100 nM.
For `COC[C@@](C)(O)c1cc2nc(-c3cnn(C)c3)c(N3CCC(Oc4ccc(F)cc4F)CC3)nc2cn1` (single isomer, unassigned) [Compound 688] the same measures were 100 to 1000 nM and 100 to 1000 nM.
As to `COC[C@](C)(O)c1cc2nc(-c3cnn(C)c3)c(N3CCC(Oc4ccc(F)cc4F)CC3)nc2cn1` (single isomer, unassigned) [Compound 689], the IC50 at GPR3 and on GPR6 was 100 to 1000 nM throughout.
Turning to `CCn1cc(-c2nc3cnc([C@@](C)(O)C(C)(C)O)cc3nc2N2CCN(Cc3ccc(F)cc3F)CC2)cn1` (single isomer, unassigned) [Compound 690], the IC50 at GPR3 lay within 1000 to 30000 nM; against GPR6, 100 to 1000 nM.
For the molecule `Cn1cc(-c2nc3cc([C@](C)(O)CO)ncc3nc2N2CCC(Oc3ccc(F)cc3F)CC2)cn1` (single isomer, unassigned) [Compound 691], the IC50 against GPR3 lay within 1000 to 30000 nM; on GPR6, 100 to 1000 nM.
For `Cn1cc(-c2nc3cc(C(C)(O)CO)ncc3nc2N2CCC(Oc3ccc(F)cc3F)CC2)cn1` (single isomer, unassigned) [Compound 692], the IC50 is 1000 to 30000 nM at GPR3 and 100 to 1000 nM at GPR6.
`CC(C)(O)[C@](C)(O)c1cc2nc(N3CCN(Cc4ccc(F)cc4F)CC3)c(-c3cnn(C(F)F)c3)nc2cn1` (single isomer, unassigned) [Compound 694]: the IC50 at GPR3 was in the range of 1000 to 30000 nM; on GPR6, 100 to 1000 nM.
As for `CC(C)(O)[C@@](C)(O)c1cc2nc(N3CCN(Cc4ccc(F)cc4F)CC3)c(-c3cnn(C(F)F)c3)nc2cn1` (single isomer, unassigned) [Compound 695], the IC50 at GPR3 was 1000 to 30000 nM; on GPR6 it was 100 to 1000 nM.
On to `CCn1cc(-c2nc3cnc([C@](C)(O)C(C)(C)O)cc3nc2N2CCN(Cc3ccc(F)cc3F)CC2)cn1` (single isomer, unassigned) [Compound 697], for which the figures for the IC50 against GPR3 and at GPR6 were 1000 to 30000 nM and 100 to 1000 nM, respectively.
With `CC(C)(O)C(C)(O)c1cc2nc(-c3cnn(C(F)F)c3)c(N3CCN(Cc4ccccc4F)CC3)nc2cn1` (single isomer, unassigned) [Compound 708], the IC50 was in the range of 1000 to 30000 nM against GPR3 and 100 to 1000 nM against GPR6.
For `CC(C)(O)C(C)(O)c1cc2nc(-c3cnn(C(F)F)c3)c(N3CCN(Cc4ccccc4F)CC3)nc2cn1` (single isomer, unassigned) [Compound 709] the same measures were 1000 to 30000 nM and 100 to 1000 nM.
As to `CC(C)(O)[C@@](C)(O)c1cc2nc(-c3cnn(CF)c3)c(N3CCN(Cc4ccc(F)cc4F)CC3)nc2cn1` (single isomer, unassigned) [Compound 711], the values for the IC50 on GPR3 and against GPR6 were 1000 to 30000 nM and 100 to 1000 nM, respectively.
As to `CC(C)(O)[C@](C)(O)c1cc2nc(-c3cnn(CF)c3)c(N3CCN(Cc4ccc(F)cc4F)CC3)nc2cn1` (single isomer, unassigned) [Compound 712], the 50% inhibitory concentration (IC50) on GPR3 was 1000 to 30000 nM; against GPR6, 100 to 1000 nM.
Regarding `CC(C)(O)[C@@H](O)c1cc2nc(-c3cnn(CF)c3)c(N3CCN(Cc4ccccc4F)CC3)nc2cn1` (single isomer, unassigned) [Compound 713], the IC50 on GPR3 lay in the range of 1000 to 30000 nM; on GPR6, 100 to 1000 nM.
For `CC(C)(O)[C@@](C)(O)c1cc2nc(-c3cnn(CF)c3)c(N3CCN(Cc4ccccc4F)CC3)nc2cn1` (single isomer, unassigned) [Compound 715] the same measures were 1000 to 30000 nM and 100 to 1000 nM.
Consider `Cn1cc(-c2nc3cnc([C@@H](O)C(C)(C)O)cc3nc2N2CCC(=Cc3ccc(F)cc3F)CC2)cn1` (single isomer, unassigned) [Compound 719], for which the 50% inhibitory concentration (IC50) on GPR3 is 1000 to 30000 nM; at GPR6, below 100 nM.
For `Cn1cc(-c2nc3cnc([C@H](O)C(C)(C)O)cc3nc2N2CCC(=Cc3ccc(F)cc3F)CC2)cn1` (single isomer, unassigned) [Compound 720] the same measures were 1000 to 30000 nM and below 100 nM.
For `CC(C)(O)C(C)(O)c1cc2nc(-c3cnn(C4CC4)c3)c(N3CCC(Oc4ccc(F)cc4F)CC3)nc2cn1` (single isomer, unassigned) [Compound 721], the IC50 on GPR3 lay within 1000 to 30000 nM; against GPR6 it was 100 to 1000 nM.
Consider `CC(C)(O)C(C)(O)c1cc2nc(-c3cnn(C4CC4)c3)c(N3CCC(Oc4ccc(F)cc4F)CC3)nc2cn1` (single isomer, unassigned) [Compound 722], for which the values for the IC50 at GPR3 and against GPR6 were 1000 to 30000 nM and 100 to 1000 nM, respectively.
In the case of `CC(C)(O)C(O)c1cc2nc(-c3cnn(CF)c3)c(N3CCN(Cc4cc(F)ccc4F)CC3)nc2cn1` (single isomer, unassigned) [Compound 723], the IC50 on GPR3 is 1000 to 30000 nM; on GPR6, 100 to 1000 nM.
For the molecule `CC(C)(O)[C@@H](O)c1cc2nc(-c3cnn(CF)c3)c(N3CCN(Cc4cc(F)ccc4F)CC3)nc2cn1` (single isomer, unassigned) [Compound 724], the IC50 on GPR3 was 1000 to 30000 nM; on GPR6, 100 to 1000 nM.
For `CC(C)(O)[C@@H](O)c1cc2nc(N3CCN(Cc4cc(F)ccc4F)CC3)c(-c3cnn(CF)c3)nc2cn1` (single isomer, unassigned) [Compound 725] the same measures were at least 30000 nM and 100 to 1000 nM.
For `CC(C)(O)[C@H](O)c1cc2nc(N3CCN(Cc4cc(F)ccc4F)CC3)c(-c3cnn(CF)c3)nc2cn1` (single isomer, unassigned) [Compound 726] the same measures were 1000 to 30000 nM and 100 to 1000 nM.
On to `CC(C)(O)[C@@H](O)c1cc2nc(N3CCC(Cc4ccc(F)cc4F)CC3)c(-c3cnn(CF)c3)nc2cn1` (single isomer, unassigned) [Compound 727], for which the IC50 at GPR3 and against GPR6 was 100 to 1000 nM each time.
`CC(C)(O)[C@H](O)c1cc2nc(N3CCC(Cc4ccc(F)cc4F)CC3)c(-c3cnn(CF)c3)nc2cn1` (single isomer, unassigned) [Compound 728]: the values for the IC50 on GPR3 and at GPR6 were 100 to 1000 nM and below 100 nM, respectively.
Turning to `CC(C)(O)[C@H](O)c1cc2nc(N3CCN(Cc4ccccc4F)CC3)c(-c3cnn(C4CC4)c3)nc2cn1` (single isomer, unassigned) [Compound 732], the values for the IC50 against GPR3 and against GPR6 were 1000 to 30000 nM and 100 to 1000 nM, respectively.
Take `COC(=O)[C@H]1C[C@@H]1c1cc2nc(N3CCC(Oc4ccc(F)cc4F)CC3)c(-c3cnn(C)c3)nc2cn1` (single isomer, unassigned) [Compound 733]: the half-inhibitory concentration (IC50) against GPR3 lay within 1000 to 30000 nM; against GPR6, 100 to 1000 nM.
For `CCn1cc(-c2nc3cnc([C@](C)(O)C(C)(C)O)cc3nc2N2CCC(Oc3ccc(F)cc3F)CC2)cn1` (single isomer, unassigned) [Compound 735], the IC50 was 1000 to 30000 nM against GPR3 and 100 to 1000 nM against GPR6.
As to `CCn1cc(-c2nc3cnc([C@@](C)(O)C(C)(C)O)cc3nc2N2CCC(Oc3ccc(F)cc3F)CC2)cn1` (single isomer, unassigned) [Compound 736], the values for the IC50 against GPR3 and on GPR6 were 1000 to 30000 nM and 100 to 1000 nM, respectively.
With `Cn1cc(-c2nc3cnc([C@H]4C[C@@H]4C(=O)O)cc3nc2N2CCC(Oc3ccc(F)cc3F)CC2)cn1` (single isomer, unassigned) [Compound 737], the IC50 on GPR3 and against GPR6 was 1000 to 30000 nM each time.
Take `Cn1cc(-c2nc3cc([C@@](C)(O)C(C)(C)O)ncc3nc2N2CCC(Oc3ccc(F)cc3F)CC2)cn1` (single isomer, unassigned) [Compound 739]: the IC50 on GPR3 fell in the range of 1000 to 30000 nM; against GPR6, 100 to 1000 nM.
On to `CCn1cc(-c2nc3cc(C(C)(O)C(C)(C)O)ncc3nc2N2CCC(Oc3ccc(F)cc3F)CC2)cn1` (single isomer, unassigned) [Compound 740], for which the values for the IC50 against GPR3 and against GPR6 were 1000 to 30000 nM and 100 to 1000 nM, respectively.
Consider `CCn1cc(-c2nc3cc(C(C)(O)C(C)(C)O)ncc3nc2N2CCC(Oc3ccc(F)cc3F)CC2)cn1` (single isomer, unassigned) [Compound 741], for which the IC50 fell in the range of 1000 to 30000 nM at GPR3 and 100 to 1000 nM against GPR6.
Regarding `CC(C)(O)[C@@H](O)c1cc2nc(N3CCN(Cc4ccccc4F)CC3)c(-c3cnn(C4CC4)c3)nc2cn1` (single isomer, unassigned) [Compound 742], the IC50 is 1000 to 30000 nM at GPR3 and 100 to 1000 nM at GPR6.
As for `Cn1cc(-c2nc3cnc([C@H](O)C(C)(C)F)cc3nc2N2CCC(Oc3ccc(F)cc3F)CC2)cn1` (single isomer, unassigned) [Compound 743], the IC50 at GPR3 lay within 1000 to 30000 nM; against GPR6, 100 to 1000 nM.
In the case of `Cn1cc(-c2nc3cnc([C@@H](O)C(C)(C)F)cc3nc2N2CCC(Oc3ccc(F)cc3F)CC2)cn1` (single isomer, unassigned) [Compound 744], the figures for the IC50 on GPR3 and against GPR6 were 1000 to 30000 nM and 100 to 1000 nM, respectively.
Regarding `CC(C)(O)[C@@H](O)c1cc2nc(-c3cnn(C4CC4)c3)c(N3CCN(Cc4ccccc4F)CC3)nc2cn1` (single isomer, unassigned) [Compound 746], the figures for the IC50 against GPR3 and against GPR6 were 1000 to 30000 nM and 100 to 1000 nM, respectively.
On to `CC(C)(O)[C@@](C)(O)c1cc2nc(N3CCN(Cc4ccccc4F)CC3)c(-c3cnn(C4CC4)c3)nc2cn1` (single isomer, unassigned) [Compound 747], for which the IC50 at GPR3 lay within 1000 to 30000 nM; against GPR6, 100 to 1000 nM.
For `Cn1cc(-c2nc3cc([C@@H](O)C(C)(C)O)ncc3nc2N2CCC(=Cc3ccc(F)cc3F)CC2)cn1` (single isomer, unassigned) [Compound 763] the same measures were 100 to 1000 nM and below 100 nM.

The values are drawn from patent US20260042755A1, “GPR6 INVERSE AGONISTS” (MapLight Therapeutics, Inc., priority 2022, published 2026).
